Results as given in US9315494B2, “Alkyl-amide-substituted pyridyl compounds useful as modulators of IL-12, IL-23 and/or IFNα responses” (Bristol-Myers Squibb Company, priority 2012, dated 2016).
Where two headings read alike, the source gives them in different places.

Assays:
[1] = system: IFNα-stimulated STAT-dependent luciferase reporter in Kit225 T cells; experiment: Kit225 T cell assay, IFNα stimulated STAT-dependent luciferase reporter; assay type: cell-based, human
In short: (§1)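 Stimulus was either 200 U/mL human recombinant IFNα or 20 ng/mL IL-23, applied for 5-6 h to reporter-bearing Kit225 T cells grown in RPMI/10% FBS. Luciferase expression then quantified by luminescent assay.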

[2] = system: IL-23-stimulated STAT-dependent luciferase reporter in Kit225 T cells; experiment: Kit225 T cell assay, IL-23 stimulated STAT-dependent luciferase reporter; assay type: cell-based, human
In short: as §1

[3] = target: T1, recombinantly expressed His-tagged protein corresponding to amino acids 575-869 of human Tyk2 (Homo sapiens, UniProt P29597); experiment: Probe displacement assay (scintillation proximity, [3H] probe); assay type: binding; details: 2.5 nM Tyk2 (575-869), 40 nM radiolabeled probe, 30 minutes at room temperature
T1 construct: corresponding to amino acids 575-869 of human Tyk2; made in house
Procedure: The probe displacement assay is conducted as follows: In a […], test compounds along with recombinantly expressed His-tagged protein corresponding to amino acids 575-869 of human Tyk2 (sequence shown below) at 2.5 nM, 40 nM ((R)-N-(1-(3-(8-methyl-5-(methylamino)-8H-imidazo[4,5-d]thiazolo[5,4-b]pyridin-2-yl)phenyl)ethyl)-2-([^3H]methylsulfonyl)benzamide) (preparation described below) and 80 μg/mL Copper His-Tag scintillation proximity assay beads (Perkin Elmer, Catalog #RPNQ0095) in 50 mM HEPES, pH 7.5, containing 100 μg/mL bovine serum albumin and 5% DMSO were incubated for 30 minutes at room temperature. The amount of radiolabeled probe (preparation described below) bound to Tyk2 was then quantified by scintillation counting, and the inhibition by the test compound calculated by comparison to wells either with no inhibitor (0% inhibition) or without Tyk2 (100% inhibition).
Protein Sequence of recombinant Hig-tagged Tyk2 (575-869):
The preparation of radiolabeled probe, (R)-N-(1-(3-(8-methyl-5-(methylamino)-8H-imidazo[4,5-d]thiazolo[5,4-b]pyridin-2-yl)phenyl)ethyl)-2-([^3H]methylsulfonyl)benzamide, was performed as described below: […]

[4] = Kit225 T cells, 200 U/mL human recombinant IFNα, 5-6 hours, luciferase, read-out: IFNα (Kit225 T Cell Inhibition Data)
[5] = Kit225 T cells, 20 ng/mL human recombinant IL-23, 5-6 hours, luciferase, read-out: IL23 (Kit225 T Cell Inhibition Data)
[6] = Homo sapiens, KIT225, read-out: IFNα (Kit225 T Cell Inhibition Data)
[7] = Homo sapiens, KIT225, read-out: IL23 (Kit225 T Cell Inhibition Data)

T1 sequence (P29597 575-869): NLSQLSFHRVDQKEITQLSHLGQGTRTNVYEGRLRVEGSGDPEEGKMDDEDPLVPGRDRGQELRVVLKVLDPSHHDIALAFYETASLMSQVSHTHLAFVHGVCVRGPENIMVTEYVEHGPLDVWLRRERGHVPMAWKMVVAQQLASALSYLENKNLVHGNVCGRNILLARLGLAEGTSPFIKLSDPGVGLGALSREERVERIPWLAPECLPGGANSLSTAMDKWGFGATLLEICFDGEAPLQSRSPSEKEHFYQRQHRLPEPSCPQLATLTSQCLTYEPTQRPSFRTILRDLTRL

Row | SMILES | IC50 [1, 4] [nM] | IC50 [2, 5] [nM] | EC50 [3] [nM] | IC50 [1, 6] [nM] | IC50 [2, 7] [nM]
1 | CNC(=O)c1cnc(Nc2ccc(N3CCOCC3)cn2)cc1Nc1ccccc1C [Example 217] | 1480 | 3310 | 291 |  | 
2 | CNC(=O)c1cnc(Nc2cccc(-n3ccccc3=O)n2)cc1Nc1ccc(F)cc1OC [Example 165] | 6650 | 10700 | 779 |  | 
3 | [2H]C([2H])([2H])NC(=O)c1cnc(Nc2ccc(C)nn2)cc1Nc1cccc(-c2csc(C)n2)c1OC [Example 448] | 17 | 11 | 8 |  | 
4 | CCc1cc(Nc2cc(Nc3ccccc3S(C)(=O)=O)c(C(=O)NC)cn2)ncn1 [Example 420] | 120 | 80 | 3 |  | 
5 | CNC(=O)c1cnc(Nc2ccc3ccccc3n2)cc1N[C@@H]1CCCC[C@@H]1C(N)=O [Example 286] | 1980 | 4220 | 106 |  | 
6 | CNC(=O)c1cnc(Nc2ccc(N3CCOCC3)cn2)cc1Nc1ccccc1CCO [Example 224] | 4600 | 5610 | 597 |  | 
7 | CCC(CC)CNC(=O)c1cccc(Nc2cc(Nc3cc(C)c(F)cn3)ncc2C(=O)NC)c1OC [Example 334] | 230 | 310 | 14 |  | 
8 | CNC(=O)c1cnc(Nc2ccc3ccccc3n2)cc1NC1CCCC1 [Example 283] |  |  | 633 | 12500 | 
9 | CNC(=O)c1cnc(Nc2cc(C)c(F)cn2)cc1Nc1ccc(C(=O)N2CCCC2)cc1S(C)(=O)=O [Example 411] | 210 | 370 |  |  | 
10 | CNC(=O)c1cnc(Nc2cc(C)c(F)cn2)cc1Nc1cccc(-c2ncn(C)n2)c1OC(F)F [Example 388] | 20 | 50 |  |  | 
11 | CNC(=O)c1ccnc(Nc2cc(Nc3ccc(Cl)cc3OC)c(C(=O)NC)cn2)c1 [Example 254] | 310 | 488 |  |  | 
12 | CNC(=O)c1cnc(Nc2ccc(C)cn2)cc1Nc1ccccc1S(C)(=O)=O [Example 22] | 50 | 64.9 |  |  | 
13 | CNC(=O)c1cnc(Nc2cc(C)c(F)cn2)cc1Nc1cccc(C(=O)NCCC(C)(C)O)c1OC [Example 333] | 90 | 120 |  |  | 
14 | CNC(=O)c1cnc(Nc2cccc(OC)n2)cc1Nc1ccccc1S(C)(=O)=O [Example 24] | 40 | 35.2 |  |  | 
15 | CNC(=O)c1cnc(Nc2ccc(C(N)=O)cn2)cc1Nc1ccc(Cl)cc1OC [Example 255] | 710 | 1560 |  |  | 
16 | CNC(=O)c1cnc(Nc2ccc(-c3ccccc3)cn2)cc1Nc1ccccc1C(N)=O [Example 76] | 740 | 854 |  |  | 
17 | CNC(=O)c1cnc(Nc2ccc(F)cn2)cc1Nc1ccc(C(N)=O)cc1OC [Example 233] | 870 | 1370 |  |  | 
18 | CNC(=O)c1cnc(Nc2cc(C)c(F)cn2)cc1Nc1cccc(-c2nc(C)nn2C)c1OC [Example 386] |  |  |  | 10 | 20
19 | CNC(=O)c1cnc(Nc2ccc(F)cn2)cc1Nc1ccc(-c2nnco2)cc1S(C)(=O)=O [Example 312] | 1020 | 590 |  |  | 

Row | SMILES | IC50 [1, 4] [nM] | IC50 [2, 5] [nM] | EC50 [3] [nM] | IC50 [1, 6] [nM] | IC50 [2, 7] [nM]
20 | CCS(=O)(=O)c1ccccc1Nc1cc(Nc2ccccn2)ncc1C(=O)NC [Example 31] | 1230 | 1860 |  |  | 
21 | CNC(=O)c1cnc(Nc2ccc3cnccc3n2)cc1Nc1ccccc1S(C)(=O)=O [Example 417] | 330 | 260 |  |  | 
22 | CNC(=O)c1cnc(Nc2ccccn2)cc1Nc1ccccc1S(N)(=O)=O [Example 430] | 50 | 160 |  |  | 
23 | CNC(=O)c1cnc(Nc2cc(C)nc(C)n2)cc1Nc1cccc(-c2nc(C)n(CC(F)(F)F)n2)c1OC [Example 370] |  |  |  | 30 | 30
24 | CNC(=O)c1cnc(Nc2cccc(C(F)(F)F)n2)cc1Nc1ccc(F)cc1OC [Example 156] | 720 | 1650 |  |  | 
25 | CNC(=O)c1cnc(Nc2ccc(F)cn2)cc1Nc1ccc(CCO)cc1 [Example 191] | 3580 | 3070 |  |  | 
26 | CNC(=O)c1cnc(Nc2cc(C)nc(C)n2)cc1Nc1cccc(-c2ncnn2CC(F)F)c1OC [Example 379] | 30 | 80 |  |  | 
27 | CNC(=O)c1cnc(Nc2ccc(F)cn2)cc1Nc1ccccc1 [Example 184] |  |  |  | 4110 | 7980
28 | CNC(=O)c1cnc(Nc2ccc(N3C(=O)COCC3C)cn2)cc1Nc1ccc(Cl)cc1OC (centres unmarked) [Example 102] | 150 | 368 |  |  | 
29 | CNC(=O)c1cnc(Nc2ccc(OC)cn2)cc1Nc1ccccc1S(C)(=O)=O [Example 434] | 50 | 100 |  |  | 
30 | CNC(=O)c1cnc(Nc2cc(C)c(F)cn2)cc1Nc1ccc(C(=O)N(C)C)cc1S(C)(=O)=O [Example 412] | 240 | 450 |  |  | 
31 | [2H]C([2H])([2H])NC(=O)c1cnc(Nc2ccccn2)cc1Nc1cccc(-c2cnn(C)c2)c1OC [Example 398] | 20 | 20 |  |  | 
32 | CNC(=O)c1cnc(Nc2ccc(N3CCOCC3)cn2)cc1Nc1ccc(F)cc1O [Example 227] | 3240 | 4600 |  |  | 
33 | CNC(=O)c1cnc(Nc2ccc(F)cn2)cc1Nc1ccc(F)c(F)c1 [Example 204] | 8130 | 9320 |  |  | 
34 | CNC(=O)c1cnc(Nc2cc(F)ccn2)cc1Nc1ccc(F)cc1OC [Example 149] | 330 | 1190 |  |  | 
35 | CNC(=O)c1cnc(Nc2ccc(C#N)cn2)cc1Nc1ccc(F)cc1OC [Example 124] | 640 | 462 |  |  | 
36 | CNC(=O)c1cnc(Nc2ccccn2)cc1Nc1ccccc1S(=O)(=O)C(F)(F)F [Example 29] | 7980 | 7110 |  |  | 
37 | CNC(=O)c1cnc(Nc2ccc(F)cn2)cc1Nc1ccc(C(=O)NC2CC2)cc1S(C)(=O)=O [Example 309] | 630 | 1920 |  |  | 
38 | CNC(=O)c1cnc(Nc2ccccn2)cc1Nc1ccc(Cl)cc1OC [Example 110] | 420 | 998 |  |  | 

Row | SMILES | IC50 [1, 4] [nM] | IC50 [2, 5] [nM] | EC50 [3] [nM] | IC50 [1, 6] [nM] | IC50 [2, 7] [nM]
39 | CCNC(=O)c1cccc(Nc2cc(Nc3cc(C)c(F)cn3)ncc2C(=O)NC)c1OC [Example 355] | 30 | 30 |  |  | 
40 | CNC(=O)c1cnc(Nc2ccc(C)nn2)cc1Nc1ccccc1S(C)(=O)=O [Example 414] | 280 | 650 |  |  | 
41 | CNC(=O)c1cnc(Nc2cc(C#N)ccn2)cc1Nc1ccc(Cl)cc1OC [Example 121] | 150 | 244 |  |  | 
42 | CNC(=O)c1cnc(Nc2cc3ccccc3cn2)cc1Nc1ccccc1C(N)=O [Example 89] | 370 | 343 |  |  | 
43 | CNC(=O)c1cnc(Nc2cc(C)n(C)n2)cc1Nc1ccccc1S(C)(=O)=O [Example 439] | 110 | 210 |  |  | 
44 | CNC(=O)c1cnc(Nc2cccc(F)n2)cc1Nc1ccccc1C(N)=O [Example 74] | 260 | 236 |  |  | 
45 | CNC(=O)c1cnc(Nc2ncccc2C)cc1Nc1ccccc1C(N)=O [Example 83] | 6940 | 5720 |  |  | 
46 | CNC(=O)c1cnc(Nc2ccc(N3CCOCC3)cn2)cc1Nc1ccc(OC)cc1OC [Example 220] | 210 | 492 |  |  | 
47 | CCN(CC)C(=O)c1ccc(Nc2cc(Nc3ccc(F)cn3)ncc2C(=O)NC)cc1 [Example 246] | 1650 | 2380 |  |  | 
48 | CNC(=O)c1cnc(Nc2ccc(F)cn2)cc1Nc1cc(F)ccc1F [Example 64] | 9030 | 5950 |  |  | 
49 | CNC(=O)c1ccc(Nc2cc(Nc3ccc(F)cn3)ncc2C(=O)NC)cc1 [Example 243] | 2110 | 4610 |  |  | 
50 | CNC(=O)c1cnc(Nc2cc(C)c(F)cn2)cc1Nc1cccc(C(=O)NC2CC2)c1OC [Example 318] | 130 | 130 |  |  | 
51 | CNC(=O)c1cnc(Nc2ccc(F)cn2)cc1Nc1ccc(C(=O)N2CC(F)(F)C2)cc1S(C)(=O)=O [Example 308] | 1160 | 1860 |  |  | 
52 | CNC(=O)c1cnc(Nc2ccc(F)cn2)cc1Nc1cccnc1OC [Example 313] | 500 | 1330 |  |  | 
53 | CNC(=O)c1cnc(Nc2cc(C)nc(C)n2)cc1Nc1cccc(-c2nc(C)n(C)n2)c1OC [Example 366] | 9.22 | 20 |  |  | 
54 | CNC(=O)c1cnc(Nc2ccc(F)cn2)cc1Nc1cccc(F)c1S(C)(=O)=O [Example 47] | 1680 | 2410 |  |  | 
55 | CNC(=O)c1cnc(Nc2ccc(F)cn2)cc1Nc1ccc(F)cc1S(C)(=O)=O [Example 13] | 120 | 257 |  |  | 
56 | CNC(=O)c1cnc(Nc2cc(C)c(F)cn2)cc1Nc1cccc(-c2ncnn2C)c1OC [Example 385] |  |  |  | 20 | 70
